# Source: publication PMC11999280, “Design and screening of novel endosomal escape compounds that enhance functional delivery of oligonucleotides in vitro” (Molecular Therapy. Nucleic Acids, 2025)
# Legend:
# Assay type in all cases: cell-based
# [1] = tested on: mCherry-GAL9 expressing HEK293 cells; assay: GAL9 recruitment assay, HEK293; conditions: calculated mean from >3 independent exp.
# Description: (§1) Experiments assessing GAL9 localization as an indicator for endosomal remodeling were performed as previously described[15] using 8× stablemCherry-GAL9 expressing cell lines, SHSY5Y, U2OS, 16HBE, NCI-H358, HuH7, HepG2, HEK293, and HeLa. For mCherry-GAL9 recruitment, 3,000 or 6,500 cells/well (depending upon cell line) were seeded into 384-well CellCarrier Ultra plates 24 h prior to treatment (PerkinElmer, catalog no. 6007558). An Echo 655T acoustic dispenser (Labcyte) was used for EEE dose-response preparation by transferring to the cell plate. At assay endpoints, cells were PBS washed, 4% paraformaldehyde fixed at room temperature […] (VWR, catalog no. 9713.1000), and nuclei stained with PBS +1 μg/mL Hoechst 33342 (Thermo Fisher Scientific, catalog no. H21492).
# (§2) Imaging was performed using a spinning-disk confocal microscope (Yokogawa: CV8000) with a ×20w objective (numerical aperture 1.0). Cells and mCherry-GAL9 structure identification and quantification were done using Columbus image-analysis software (PerkinElmer version 2.9.0). Data processing was done using Spotfire (Tibco version 11.4) and Prism (GraphPad version 9.1.0). Image panels were assembled using the FigureJ plugin for FIJI.[43] All mCherry-GAL9 experiments were performed three times (N = 3) with duplicated wells per treatment (n = 2).
# [2] = tested on: HeLa_Luc705 cells (pLuc/705 splice-switching reporter); assay: Functional 705-SSO delivery, luciferase splice-switching assay; conditions: HeLa-Luc705 + 2 µM SSO; EEE 2.5 - 3 µM; mean from >3 independent experiments
# Excerpt: Therefore, next, we functionally screened the SSO delivery in the HeLa_Luc705 reporter cell line. HeLa_Luc705 carries a pLuc/705 splice-switching reporter luciferase gene interrupted by a mutated β-globin intron, which creates a preferentially used cryptic 5′ splice site leading to aberrant splicing. Functional SSO delivery masks the cryptic site, redirecting the splicing machinery to the right splicing site, allowing the measurement of luciferase expression (Figure S1).[25]^,[26]^,[27]^,[28] We used SSO transfection with LF2000 as transfection control and the previously published endosomal escape enhancer CMP05 (here, EEE2) as positive control.[15]
# For the assessment of functional SSO therapeutics, a HeLa_Luc705 cell line was grown in DMEM media supplemented with 10% fetal bovine serum (FBS). For most treatments, 10,000 cells/well were seeded in a 96-well plate, 24 h pre-incubated with 1- to 2-μM oligonucleotide, and then treated at the described EEE concentration. At 24 h post-treatment, cells were PBS rinsed and collected for further analysis (treatments and incubation times changed accordingly to the experiment design). Luciferase readout was performed as previously described,[15] using a GloMax 96-well plate microplate luminometer (Promega) immediately after adding 30 μL auto-injected luciferin substrate (Promega Firefly Luciferase Assay System; Thermo Scientific, catalog no. 16174) in a white-walled 96-well plate containing 30 μL 0.1% Triton X-100 (Sigma-Aldrich) cell lysed. Photon exposure time and delay were set to 10 and 2 s after injection. LF2000 was used as the transfection reagent control (Thermo Scientific, catalog no. 11668019). For EEE experiments using 1 or 2 μM SSOs, the control was prepared using lipofection with 100–200 nM SSO; this is to avoid complex induced cell toxicity.
# 705-SSO was purchased from and synthesized by Integrated DNA Technologies. The 705-SSO sequence was previously published, containing 2′-O-methylated bases and only phosphorothioate-saturated backbone linkages were included.[15] The 705-SSO was high-performance liquid chromatography purified, shipped, and stored in IDTE buffer (10 mM Tris, 0.1 mM EDTA).
# [3] = tested on: mCherry-GAL9 expressing U2OS cells; assay: GAL9 recruitment assay, U2OS; conditions: calculated mean from >3 independent exp.
# Description: as §1, §2
# [4] = tested on: mCherry-GAL9 expressing NCI-H358 cells; assay: GAL9 recruitment assay, NCI-H358; conditions: calculated mean from >3 independent exp.
# Description: as §1, §2
# [5] = tested on: mCherry-GAL9 expressing HeLa cells; assay: GAL9 recruitment assay, HeLa; conditions: calculated mean from >3 independent exp.
# Description: as §1, §2
# [6] = tested on: mCherry-GAL9 expressing 16HBE cells; assay: GAL9 recruitment assay, 16HBE; conditions: calculated mean from >3 independent exp.
# Description: as §1, §2
# [7] = tested on: mCherry-GAL9 expressing HepG2 cells; assay: GAL9 recruitment assay, HepG2; conditions: calculated mean from >3 independent exp.
# Description: as §1, §2
# [8] = tested on: mCherry-GAL9 expressing HuH7 cells; assay: GAL9 recruitment assay, HuH7; conditions: calculated mean from >3 independent exp.
# Description: as §1, §2
# [9] = tested on: mCherry-GAL9 expressing SHSY5Y cells; assay: GAL9 recruitment assay, SHSY5Y; conditions: calculated mean from >3 independent exp.
# Description: as §1, §2
smiles,measurement,setting,value
COc1nn(C2CCN(C(C)C)CC2)cc1Nc1ncc(F)c(-n2ccc3c(C#N)cccc32)n1 [EEE9],Gal9 response compared to reference,[1]; EEE 0.31 µM,0.028
same,Gal9 response compared to reference,[1]; EEE 0.62 µM,0.032
same,Gal9 response compared to reference,[1]; EEE 1.25 µM,0.071
same,Gal9 response compared to reference,[1]; EEE 2.5 µM,0.396
same,Gal9 response compared to reference,[1]; EEE 5 µM,0.712
same,Gal9 response compared to reference,[1]; EEE 10 µM,0.639
same,Luciferase expression compared to reference,[2],0.692
same,Gal9 response compared to reference,[3]; EEE 0.31 µM,0.012
same,Gal9 response compared to reference,[3]; EEE 0.62 µM,0.013
same,Gal9 response compared to reference,[3]; EEE 1.25 µM,0.018
same,Gal9 response compared to reference,[3]; EEE 2.5 µM,0.055
same,Gal9 response compared to reference,[3]; EEE 5 µM,0.254
same,Gal9 response compared to reference,[3]; EEE 10 µM,0.502
same,Gal9 response compared to reference,[4]; EEE 0.31 µM,0.018
same,Gal9 response compared to reference,[4]; EEE 0.62 µM,0.020
same,Gal9 response compared to reference,[4]; EEE 1.25 µM,0.031
same,Gal9 response compared to reference,[4]; EEE 2.5 µM,0.212
same,Gal9 response compared to reference,[4]; EEE 5 µM,0.569
same,Gal9 response compared to reference,[4]; EEE 10 µM,0.627
same,Gal9 response compared to reference,[5]; EEE 0.31 µM,0.005
same,Gal9 response compared to reference,[5]; EEE 0.62 µM,0.005
same,Gal9 response compared to reference,[5]; EEE 1.25 µM,0.007
same,Gal9 response compared to reference,[5]; EEE 2.5 µM,0.110
same,Gal9 response compared to reference,[5]; EEE 5 µM,0.393
same,Gal9 response compared to reference,[5]; EEE 10 µM,0.495
same,Gal9 response compared to reference,[6]; EEE 0.31 µM,0.010
same,Gal9 response compared to reference,[6]; EEE 0.62 µM,0.013
same,Gal9 response compared to reference,[6]; EEE 1.25 µM,0.042
same,Gal9 response compared to reference,[6]; EEE 2.5 µM,0.209
same,Gal9 response compared to reference,[6]; EEE 5 µM,0.533
same,Gal9 response compared to reference,[6]; EEE 10 µM,0.691
same,Gal9 response compared to reference,[7]; EEE 0.31 µM,0.009
same,Gal9 response compared to reference,[7]; EEE 0.62 µM,0.009
same,Gal9 response compared to reference,[7]; EEE 1.25 µM,0.007
same,Gal9 response compared to reference,[7]; EEE 2.5 µM,0.011
same,Gal9 response compared to reference,[7]; EEE 5 µM,0.060
same,Gal9 response compared to reference,[7]; EEE 10 µM,0.564
same,Gal9 response compared to reference,[8]; EEE 0.31 µM,0.012
same,Gal9 response compared to reference,[8]; EEE 0.62 µM,0.009
same,Gal9 response compared to reference,[8]; EEE 1.25 µM,0.019
same,Gal9 response compared to reference,[8]; EEE 2.5 µM,0.083
same,Gal9 response compared to reference,[8]; EEE 5 µM,0.220
same,Gal9 response compared to reference,[8]; EEE 10 µM,0.366
same,Gal9 response compared to reference,[9]; EEE 0.31 µM,0.013
same,Gal9 response compared to reference,[9]; EEE 0.62 µM,0.016
same,Gal9 response compared to reference,[9]; EEE 1.25 µM,0.117
same,Gal9 response compared to reference,[9]; EEE 2.5 µM,0.756
same,Gal9 response compared to reference,[9]; EEE 5 µM,0.780
same,Gal9 response compared to reference,[9]; EEE 10 µM,0.696
COc1nn(C2CCN(C)CC2)cc1Nc1ncc(C(F)(F)F)c(-n2ccc3c(C#N)cccc32)n1 [EEE16],Gal9 response compared to reference,[1]; EEE 0.31 µM,0.023
same,Gal9 response compared to reference,[1]; EEE 0.62 µM,0.020
same,Gal9 response compared to reference,[1]; EEE 1.25 µM,0.019
same,Gal9 response compared to reference,[1]; EEE 2.5 µM,0.022
same,Gal9 response compared to reference,[1]; EEE 5 µM,0.024
same,Gal9 response compared to reference,[1]; EEE 10 µM,0.121
same,Luciferase expression compared to reference,[2],0.810
same,Gal9 response compared to reference,[3]; EEE 0.31 µM,0.010
same,Gal9 response compared to reference,[3]; EEE 0.62 µM,0.011
same,Gal9 response compared to reference,[3]; EEE 1.25 µM,0.010
same,Gal9 response compared to reference,[3]; EEE 2.5 µM,0.010
same,Gal9 response compared to reference,[3]; EEE 5 µM,0.010
same,Gal9 response compared to reference,[3]; EEE 10 µM,0.024
same,Gal9 response compared to reference,[4]; EEE 0.31 µM,0.014
same,Gal9 response compared to reference,[4]; EEE 0.62 µM,0.017
same,Gal9 response compared to reference,[4]; EEE 1.25 µM,0.014
same,Gal9 response compared to reference,[4]; EEE 2.5 µM,0.018
same,Gal9 response compared to reference,[4]; EEE 5 µM,0.014
same,Gal9 response compared to reference,[4]; EEE 10 µM,0.019
same,Gal9 response compared to reference,[5]; EEE 0.31 µM,0.004
same,Gal9 response compared to reference,[5]; EEE 0.62 µM,0.004
same,Gal9 response compared to reference,[5]; EEE 1.25 µM,0.003
same,Gal9 response compared to reference,[5]; EEE 2.5 µM,0.004
same,Gal9 response compared to reference,[5]; EEE 5 µM,0.004
same,Gal9 response compared to reference,[5]; EEE 10 µM,0.005
same,Gal9 response compared to reference,[6]; EEE 0.31 µM,0.008
same,Gal9 response compared to reference,[6]; EEE 0.62 µM,0.009
same,Gal9 response compared to reference,[6]; EEE 1.25 µM,0.008
same,Gal9 response compared to reference,[6]; EEE 2.5 µM,0.007
same,Gal9 response compared to reference,[6]; EEE 5 µM,0.011
same,Gal9 response compared to reference,[6]; EEE 10 µM,0.129
same,Gal9 response compared to reference,[7]; EEE 0.31 µM,0.010
same,Gal9 response compared to reference,[7]; EEE 0.62 µM,0.007
same,Gal9 response compared to reference,[7]; EEE 1.25 µM,0.008
same,Gal9 response compared to reference,[7]; EEE 2.5 µM,0.008
same,Gal9 response compared to reference,[7]; EEE 5 µM,0.009
same,Gal9 response compared to reference,[7]; EEE 10 µM,0.010
same,Gal9 response compared to reference,[8]; EEE 0.31 µM,0.009
same,Gal9 response compared to reference,[8]; EEE 0.62 µM,0.007
same,Gal9 response compared to reference,[8]; EEE 1.25 µM,0.008
same,Gal9 response compared to reference,[8]; EEE 2.5 µM,0.012
same,Gal9 response compared to reference,[8]; EEE 5 µM,0.008
same,Gal9 response compared to reference,[8]; EEE 10 µM,0.022
same,Gal9 response compared to reference,[9]; EEE 0.31 µM,0.014
same,Gal9 response compared to reference,[9]; EEE 0.62 µM,0.014
same,Gal9 response compared to reference,[9]; EEE 1.25 µM,0.012
same,Gal9 response compared to reference,[9]; EEE 2.5 µM,0.012
same,Gal9 response compared to reference,[9]; EEE 5 µM,0.012
same,Gal9 response compared to reference,[9]; EEE 10 µM,0.042
